Assay results published in PubChem BioAssay AID248 (DTP/NCI, 2004).
“And” between values parts separate entries of the source, which are not always exact repeats. Equal entries are not always repeated. Inconclusive results and toxic doses are left out. Cut-off read from the data, not from the text of the source: active = T/C of 150% or more; inactive = T/C below 125%.

Tested on: L1210 leukemia ip in BDF1 mice, survival T/C
Assay: NCI In Vivo Anticancer Drug Screen. Data for tumor model L1210 Leukemia (intraperitoneal) in B6D2F1 (BDF1) mice
Conditions: endpoint: mean survival time, higher = longer survival
Outline: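 Antitumor effect is assessed in tumor-bearing animals. Survival in the compound arm is compared with a vehicle-dosed control arm and expressed as their quotient.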

[1] = dose: 100.0 mg/kg/injection, schedule: Q04DX002 (ip), vehicle: saline with Tween-80
[2] = dose: 200.0 mg/kg/injection, schedule: Q04DX002 (ip), vehicle: saline with Tween-80
[3] = dose: 400.0 mg/kg/injection, schedule: Q04DX002 (ip), vehicle: saline with Tween-80
[4] = dose: 100.0 mg/kg/injection, schedule: Q01DX009 (ip), vehicle: Klucel (hydroxypropylcellulose) (HPC)
[5] = dose: 200.0 mg/kg/injection, schedule: Q01DX009 (ip), vehicle: Klucel (hydroxypropylcellulose) (HPC)
[6] = dose: 400.0 mg/kg/injection, schedule: Q01DX009 (ip), vehicle: Klucel (hydroxypropylcellulose) (HPC)
[7] = dose: 100.0 mg/kg/injection, schedule: Q04DX003 (ip), vehicle: saline
[8] = dose: 200.0 mg/kg/injection, schedule: Q04DX003 (ip), vehicle: saline
[9] = dose: 100.0 mg/kg/injection, schedule: Q04DX003 (ip), vehicle: saline with Tween-80
[10] = dose: 200.0 mg/kg/injection, schedule: Q04DX003 (ip), vehicle: saline with Tween-80
[11] = dose: 400.0 mg/kg/injection, schedule: Q04DX003 (ip), vehicle: saline with Tween-80
[12] = dose: 100.0 mg/kg/injection, schedule: Q01DX001 (ip), vehicle: saline
[13] = dose: 200.0 mg/kg/injection, schedule: Q01DX001 (ip), vehicle: saline
[14] = dose: 400.0 mg/kg/injection, schedule: Q01DX001 (ip), vehicle: saline
[15] = dose: 25.0 mg/kg/injection, schedule: Q04DX003 (ip), vehicle: saline with Tween-80
[16] = dose: 50.0 mg/kg/injection, schedule: Q04DX003 (ip), vehicle: saline with Tween-80

Measured: T/C

COc1ccccc1NC(=S)NCc1ccco1
inactive: [1] 89 % of control | [2] 89 % of control

CC(=O)OC1COC(Cl)C(OC(C)=O)C1OC(C)=O (stereo unspecified)
inactive: dose: 100.0 mg/kg/injection, schedule: Q01DX001 (sc), vehicle: olive oil, sesame oil, peanut oil 103 % of control | dose: 200.0 mg/kg/injection, schedule: Q01DX001 (sc), vehicle: olive oil, sesame oil, peanut oil 97 % of control | dose: 400.0 mg/kg/injection, schedule: Q01DX001 (sc), vehicle: olive oil, sesame oil, peanut oil 97 % of control

Cc1ccc(S(=O)NOCCCCONS(=O)c2ccc(C)cc2)cc1 (stereo unspecified)
inactive: dose: 100.0 mg/kg/injection, schedule: Q01DX001 (ip), vehicle: saline with Tween-80 98 % of control | dose: 100.0 mg/kg/injection, schedule: Q01DX009 (ip), vehicle: saline with Tween-80 100 % of control and 89 % of control | [1] 96 % of control and 91 % of control | dose: 200.0 mg/kg/injection, schedule: Q01DX001 (ip), vehicle: saline with Tween-80 95 % of control | dose: 200.0 mg/kg/injection, schedule: Q01DX009 (ip), vehicle: saline with Tween-80 86 % of control and 87 % of control | [2] 93 % of control and 98 % of control | dose: 400.0 mg/kg/injection, schedule: Q01DX001 (ip), vehicle: saline with Tween-80 106 % of control | dose: 400.0 mg/kg/injection, schedule: Q01DX009 (ip), vehicle: saline with Tween-80 90 % of control | [3] 104 % of control and 105 % of control

CCOC(=O)C(CCN(C)Cc1ccccc1)C(=O)OCC
inactive: [4] 97 % of control | [5] 100 % of control | [6] 106 % of control

COC(=O)C1C(O)CN2CCCC12 (stereo unspecified)
inactive: [7] 93 % of control | [8] 93 % of control | dose: 400.0 mg/kg/injection, schedule: Q04DX003 (ip), vehicle: saline 93 % of control

O=C1C=C(C(Cl)(Cl)Cl)OC(=O)C1
inactive: [9] 98 % of control | [10] 98 % of control | [11] 93 % of control

SC1(S)CC(c2ccc(Cl)cc2)NC(c2ccc(Cl)cc2)C1 (stereo unspecified)
inactive: dose: 50.0 mg/kg/injection, schedule: Q01DX009 (ip), vehicle: saline 100 % of control | dose: 100.0 mg/kg/injection, schedule: Q01DX009 (ip), vehicle: saline 93 % of control and 102 % of control | [7] 98 % of control | dose: 200.0 mg/kg/injection, schedule: Q01DX009 (ip), vehicle: saline 93 % of control and 103 % of control | [8] 89 % of control

Nc1cc2ccccc2c(O)c1O
inactive: dose: 100.0 mg/kg/injection, schedule: Q04DX003 (ip), vehicle: saline sonified 93 % of control | dose: 200.0 mg/kg/injection, schedule: Q04DX003 (ip), vehicle: saline sonified 96 % of control | dose: 400.0 mg/kg/injection, schedule: Q04DX003 (ip), vehicle: saline sonified 90 % of control

CCCCN(C)N=Nc1cn(C2OC(CO)C(O)C2O)c(=O)[nH]c1=O (stereo unspecified)
inactive: dose: 100.0 mg/kg/injection, schedule: Q01DX009 (ip), vehicle: water 112 % of control | dose: 100.0 mg/kg/injection, schedule: Q04DX003 (ip), vehicle: water 96 % of control | dose: 200.0 mg/kg/injection, schedule: Q01DX009 (ip), vehicle: water 106 % of control | dose: 200.0 mg/kg/injection, schedule: Q04DX003 (ip), vehicle: water 102 % of control | dose: 400.0 mg/kg/injection, schedule: Q01DX009 (ip), vehicle: water 117 % of control | dose: 400.0 mg/kg/injection, schedule: Q04DX003 (ip), vehicle: water 107 % of control

CC(=O)c1cccc(NC(=O)N2CCCCC2C)c1 (stereo unspecified)
inactive: [4] 111 % of control | [5] 112 % of control | [6] 103 % of control

CC(=O)OCC1OC(n2cnc([N+](=O)[O-])c2Br)C(OC(C)=O)C1OC(C)=O (stereo unspecified)
inactive: dose: 50.0 mg/kg/injection, schedule: Q01DX001 (ip), vehicle: saline 98 % of control | [12] 98 % of control | [13] 102 % of control | [14] 102 % of control

CC(=O)c1c(O)cc(C)[nH]c1=O
inactive: [12] 86 % of control | [13] 89 % of control | [14] 86 % of control

CN=C(c1ccc(NC(=O)c2ccc(C(=O)Nc3ccc(C(=NC)N(C)C)cc3)c(Cl)c2)cc1)N(C)C
inactive: dose: 0.94 mg/kg/injection, schedule: Q01DX Z (ip), vehicle: saline 98 % of control | dose: 1.88 mg/kg/injection, schedule: Q01DX Z (ip), vehicle: saline 87 % of control

COc1ccc(/C=c2\[nH]c(=O)/c(=C/c3ccc(OC)c(OC)c3)[nH]c2=O)cc1OC
inactive: [15] 92 % of control | [16] 89 % of control | [9] 86 % of control

CC1(CCl)OCCO1
inactive: [4] 91 % of control | dose: 100.0 mg/kg/injection, schedule: Q04DX003 (ip), vehicle: Klucel (hydroxypropylcellulose) (HPC) 100 % of control | [5] 96 % of control | dose: 200.0 mg/kg/injection, schedule: Q04DX003 (ip), vehicle: Klucel (hydroxypropylcellulose) (HPC) 101 % of control | dose: 400.0 mg/kg/injection, schedule: Q04DX003 (ip), vehicle: Klucel (hydroxypropylcellulose) (HPC) 98 % of control

CC1=CCC=C(CNc2ncnc3nc[nH]c23)C1
inactive: dose: 25.0 mg/kg/injection, schedule: Q01DX009 (ip), vehicle: saline with Tween-80 95 % of control | [15] 94 % of control | dose: 50.0 mg/kg/injection, schedule: Q01DX009 (ip), vehicle: saline with Tween-80 93 % of control | [16] 97 % of control | [9] 101 % of control

O[Si](O)(c1ccccc1)c1ccccc1
inactive: [1] 92 % of control | [2] 87 % of control | [3] 92 % of control

C/C(=N\Nc1nc2ccccc2o1)c1ccncc1
inactive: dose: 50.0 mg/kg/injection, schedule: Q01DX009 (ip), vehicle: Klucel (hydroxypropylcellulose) (HPC) 105 % of control | [4] 105 % of control | [5] 116 % of control | [6] 108 % of control

O=CC(C(O)C(O)C(O)CO)N1CCN(C(C=O)C(O)C(O)C(O)CO)CC1 (stereo unspecified)
inactive: dose: 50.0 mg/kg/injection, schedule: Q04DX002 (ip), vehicle: saline 95 % of control | dose: 100.0 mg/kg/injection, schedule: Q04DX002 (ip), vehicle: saline 107 % of control | dose: 200.0 mg/kg/injection, schedule: Q04DX002 (ip), vehicle: saline 107 % of control

O=c1cc(CNc2ccc(Cl)cc2)[nH]c(=O)[nH]1
inactive: [9] 98 % of control | [10] 101 % of control | [11] 95 % of control

Cc1[nH]nc(C(F)(F)F)c1N=NN(C)C
inactive: dose: 175.0 mg/kg/injection, schedule: Q01DX009 (ip), vehicle: saline 90 % of control
